The target of one data set is Cytochrome P450 3A4 (Homo sapiens, UniProt P08684). Kind of data set: Inhibition of CYP3A4 (unknown origin). It counts as ADME.
The nature of data set [1]: Half life in monkey liver microsomes. The data set is classed as ADME, Macaca mulatta. The settings on record: rhesus monkey. (Liver microsomes are a subcellular fraction often used to study metabolism.)
Data set [2] can be described thus: Half life in human liver microsomes. It counts as ADME.
The next data set has as its target Cytochrome P450 2C9 (Homo sapiens, UniProt P11712). Description: Inhibition of CYP2C9 (unknown origin). It counts as ADME.
For data set [3], the target named is Histamine H3 receptor (Rattus norvegicus, UniProt Q9QYN8). Description: Binding affinity to rat histamine H3 receptor.
Sequence of Histamine H3 receptor (Rattus norvegicus, UniProt Q9QYN8) (Q9QYN8 whole entry): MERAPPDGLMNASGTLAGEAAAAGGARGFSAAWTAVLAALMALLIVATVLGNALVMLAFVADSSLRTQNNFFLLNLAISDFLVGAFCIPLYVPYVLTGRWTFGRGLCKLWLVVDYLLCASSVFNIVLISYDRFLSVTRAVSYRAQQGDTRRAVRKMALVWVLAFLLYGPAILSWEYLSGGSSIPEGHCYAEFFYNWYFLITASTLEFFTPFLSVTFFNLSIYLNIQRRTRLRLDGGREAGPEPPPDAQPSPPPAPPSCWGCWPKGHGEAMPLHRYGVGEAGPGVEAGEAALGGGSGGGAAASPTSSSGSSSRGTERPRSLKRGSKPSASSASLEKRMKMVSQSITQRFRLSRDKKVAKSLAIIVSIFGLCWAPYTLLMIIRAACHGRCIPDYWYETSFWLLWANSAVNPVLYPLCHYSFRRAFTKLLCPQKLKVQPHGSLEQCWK
Data set [4] is described as follows: Clearance in iv dosed rat. The data set is classed as ADME, organism-based. The settings on record: in vivo.
The nature of data set [5]: Half life in dog liver microsomes. It counts as ADME, Canis lupus familiaris.
Data set [6] in a line: Half life in iv dosed rat. It counts as ADME, organism-based. The settings on record: in vivo.
Data set [7] is described as follows: Half life in mouse liver microsomes. It counts as ADME.
For a further data set, the target named is Cytochrome P450 2D6 (Homo sapiens, UniProt P10635). Description: Inhibition of CYP2D6 (unknown origin). It counts as ADME.
Sequence of Cytochrome P450 2D6 (P10635 whole entry): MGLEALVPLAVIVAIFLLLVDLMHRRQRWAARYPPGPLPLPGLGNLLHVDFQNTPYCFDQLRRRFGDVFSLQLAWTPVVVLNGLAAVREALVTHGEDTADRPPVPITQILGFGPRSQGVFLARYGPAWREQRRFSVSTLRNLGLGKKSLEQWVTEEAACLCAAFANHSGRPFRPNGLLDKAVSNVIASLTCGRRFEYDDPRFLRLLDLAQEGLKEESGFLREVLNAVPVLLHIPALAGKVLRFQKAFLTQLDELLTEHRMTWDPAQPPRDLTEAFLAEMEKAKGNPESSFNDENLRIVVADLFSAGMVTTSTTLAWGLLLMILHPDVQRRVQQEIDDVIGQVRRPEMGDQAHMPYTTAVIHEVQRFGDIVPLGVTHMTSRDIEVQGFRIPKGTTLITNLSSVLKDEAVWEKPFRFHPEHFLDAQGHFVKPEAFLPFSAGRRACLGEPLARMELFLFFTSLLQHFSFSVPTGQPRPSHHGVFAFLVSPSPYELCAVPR
Data set [8] can be described thus: Oral bioavailability in rat. It counts as ADME, organism-based. Particulars: in vivo.
The target in data set [9] is T1, Histamine H3 receptor (Homo sapiens, UniProt Q9Y5N1). Description: Binding affinity to human histamine H3 receptor.
T1 sequence (Q9Y5N1 whole entry): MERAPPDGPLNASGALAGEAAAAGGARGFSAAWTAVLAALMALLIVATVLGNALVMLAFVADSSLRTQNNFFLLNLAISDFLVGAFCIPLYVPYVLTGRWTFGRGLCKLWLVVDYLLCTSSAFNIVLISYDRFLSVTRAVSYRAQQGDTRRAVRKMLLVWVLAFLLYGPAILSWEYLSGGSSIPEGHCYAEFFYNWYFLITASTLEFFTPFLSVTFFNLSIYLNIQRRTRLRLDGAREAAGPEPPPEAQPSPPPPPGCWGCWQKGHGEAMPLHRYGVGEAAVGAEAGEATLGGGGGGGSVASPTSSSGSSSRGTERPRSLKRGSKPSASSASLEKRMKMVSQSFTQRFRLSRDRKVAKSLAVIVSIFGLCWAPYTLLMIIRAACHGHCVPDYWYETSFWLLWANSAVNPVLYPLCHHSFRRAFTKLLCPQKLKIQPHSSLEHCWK
The next data set deals with Cytochrome P450 2C19 (Homo sapiens, UniProt P33261). Description: Inhibition of CYP2C19 (unknown origin). It counts as ADME.
Sequence of Cytochrome P450 2C19 (P33261 whole entry): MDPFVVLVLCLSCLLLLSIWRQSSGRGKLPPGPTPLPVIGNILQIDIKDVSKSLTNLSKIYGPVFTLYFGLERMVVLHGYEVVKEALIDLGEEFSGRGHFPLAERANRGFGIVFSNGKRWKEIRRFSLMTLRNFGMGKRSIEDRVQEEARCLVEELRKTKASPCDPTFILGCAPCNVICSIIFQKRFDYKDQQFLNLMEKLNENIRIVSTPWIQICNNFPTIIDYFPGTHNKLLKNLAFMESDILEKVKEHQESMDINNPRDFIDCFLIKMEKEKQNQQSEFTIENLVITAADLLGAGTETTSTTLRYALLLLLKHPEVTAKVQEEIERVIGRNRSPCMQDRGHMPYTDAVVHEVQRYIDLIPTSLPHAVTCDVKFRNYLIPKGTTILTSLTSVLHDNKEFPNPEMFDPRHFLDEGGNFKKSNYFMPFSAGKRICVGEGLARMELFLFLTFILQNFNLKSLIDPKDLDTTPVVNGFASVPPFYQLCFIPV
A further data set addresses T2, Cytochrome P450 1A2 (Homo sapiens, UniProt P05177).
T2 sequence (P05177 whole entry): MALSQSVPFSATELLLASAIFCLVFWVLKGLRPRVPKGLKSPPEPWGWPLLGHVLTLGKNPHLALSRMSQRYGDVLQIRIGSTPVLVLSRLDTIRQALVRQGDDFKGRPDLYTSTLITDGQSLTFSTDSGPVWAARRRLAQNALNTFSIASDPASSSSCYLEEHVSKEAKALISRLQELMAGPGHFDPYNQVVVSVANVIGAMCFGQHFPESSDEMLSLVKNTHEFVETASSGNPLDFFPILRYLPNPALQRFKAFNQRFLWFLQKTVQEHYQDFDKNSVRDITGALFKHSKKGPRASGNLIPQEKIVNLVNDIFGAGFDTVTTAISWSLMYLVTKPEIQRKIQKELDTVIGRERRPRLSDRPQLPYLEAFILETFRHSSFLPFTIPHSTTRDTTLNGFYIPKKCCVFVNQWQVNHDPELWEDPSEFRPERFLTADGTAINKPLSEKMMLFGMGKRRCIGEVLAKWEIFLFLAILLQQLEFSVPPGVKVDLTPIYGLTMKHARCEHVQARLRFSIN
Kind of data set: Inhibition of CYP1A2 (unknown origin). The data set is classed as ADME.

The nature of data set [10]: Half life in rat liver microsomes. It counts as ADME.
The nature of data set [11]: Cmax in rat at 10 mg/kg, po. It counts as ADME, organism-based. Further details: dose 10 mg/kg, route oral. Particulars: in vivo.
Data set [12] in a line: Permeability across human Caco2 cells. The data set is classed as ADME, cell-based. The settings on record: Caco-2. A general note: Caco-2 cells form a polarised layer with tight junctions and transporters.
The nature of data set [13]: Ratio of drug level in brain to plasma in rat at 10 mg/kg, ip after 2 hrs. Further details: dose 10 mg/kg, route intraperitoneal. The data set is classed as ADME, organism-based. Particulars: read-out: BPR.
Data set [14] is described as follows: Aqueous solubility of the compound at pH 7.4. It counts as physicochemical.
Data set [15] is described as follows: Volume of distribution at steady state in rat at 1 mg/kg, iv. Particulars: in vivo, read-out: Vdss. Further details: dose 1 mg/kg, route intravenous. The data set is classed as ADME, organism-based.
The nature of data set [16]: Half life in rat at 1 mg/kg, iv. The settings on record: in vivo. Further details: dose 1 mg/kg, route intravenous. It counts as ADME, organism-based.
The subject of data set [17] is Rattus norvegicus. Kind of data set: Wake promoting activity in rat EEG/EMG model assessed as AUC of cumulative wake at 30 mg/kg, ip up to 5.5 hrs relative to vehicle-treated control. It counts as functional, organism-based. Further details: dose 30 mg/kg, time < 5.5 hr.
The test system of data set [18] is Rattus norvegicus. Kind of data set: Toxicity in po dosed rat. The settings on record: in vivo. It counts as organism-based.
The test system of data set [19] is Rattus norvegicus. Description: Wake promoting activity in rat EEG/EMG model assessed as cumulative wake time at 3 mg/kg, ip after 22 hrs relative to vehicle-treated control. It counts as functional. The settings on record: route intraperitoneal.
The nature of data set [20]: AUC (0 to t) in rat at 10 mg/kg, po. It counts as ADME, organism-based. Also noted: dose 10 mg/kg, route oral. The settings on record: plasma.
Data set [21] has as its system Rattus norvegicus. Kind of data set: Wake promoting activity in rat EEG/EMG model assessed as cumulative wake time at 30 mg/kg, ip after 22 hrs relative to vehicle-treated control. The data set is classed as functional. Particulars: route intraperitoneal.
Data set [22] is described as follows: Plasma protein binding in dog. It counts as ADME, cell-free, Canis lupus familiaris. Particulars: read-out: PPB (converted).
The target of a further data set is Histamine H4 receptor (Homo sapiens, UniProt Q9H3N8). Kind of data set: Inhibition of human H4R.
Sequence of Histamine H4 receptor (Q9H3N8 whole entry): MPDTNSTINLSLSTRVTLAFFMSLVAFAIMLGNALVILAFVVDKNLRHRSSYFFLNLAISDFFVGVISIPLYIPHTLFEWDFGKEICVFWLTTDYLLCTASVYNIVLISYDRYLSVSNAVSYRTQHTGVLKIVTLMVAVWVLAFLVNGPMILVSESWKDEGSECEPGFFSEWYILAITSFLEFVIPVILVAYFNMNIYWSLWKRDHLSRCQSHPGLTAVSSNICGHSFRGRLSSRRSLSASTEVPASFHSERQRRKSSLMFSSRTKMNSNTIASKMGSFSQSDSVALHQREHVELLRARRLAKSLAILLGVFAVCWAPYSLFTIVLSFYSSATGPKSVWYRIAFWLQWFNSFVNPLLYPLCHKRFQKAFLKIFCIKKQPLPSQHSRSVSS
Data set [23] can be described thus: Aqueous solubility of the compound at pH 2. It counts as physicochemical.
The species entered for data set [24] is Rattus norvegicus. Description: Inhibition of RAMH-induced dipsogenia in rat. It counts as functional.
Data set [25] has as its target T1, Histamine H3 receptor. Description: Inverse agonist activity at human H3R expressed in CHO cells assessed as inhibition of RAMH-induced [35S]GTPgammaS binding relative to control. It counts as functional, cell-based. For orientation: Binding of GTPγS marks nucleotide exchange on a G protein.
In data set [26] the target is Sodium-dependent dopamine transporter (Homo sapiens, UniProt Q01959). Kind of data set: Inhibition of DAT (unknown origin).
Sequence of Sodium-dependent dopamine transporter (Q01959 whole entry): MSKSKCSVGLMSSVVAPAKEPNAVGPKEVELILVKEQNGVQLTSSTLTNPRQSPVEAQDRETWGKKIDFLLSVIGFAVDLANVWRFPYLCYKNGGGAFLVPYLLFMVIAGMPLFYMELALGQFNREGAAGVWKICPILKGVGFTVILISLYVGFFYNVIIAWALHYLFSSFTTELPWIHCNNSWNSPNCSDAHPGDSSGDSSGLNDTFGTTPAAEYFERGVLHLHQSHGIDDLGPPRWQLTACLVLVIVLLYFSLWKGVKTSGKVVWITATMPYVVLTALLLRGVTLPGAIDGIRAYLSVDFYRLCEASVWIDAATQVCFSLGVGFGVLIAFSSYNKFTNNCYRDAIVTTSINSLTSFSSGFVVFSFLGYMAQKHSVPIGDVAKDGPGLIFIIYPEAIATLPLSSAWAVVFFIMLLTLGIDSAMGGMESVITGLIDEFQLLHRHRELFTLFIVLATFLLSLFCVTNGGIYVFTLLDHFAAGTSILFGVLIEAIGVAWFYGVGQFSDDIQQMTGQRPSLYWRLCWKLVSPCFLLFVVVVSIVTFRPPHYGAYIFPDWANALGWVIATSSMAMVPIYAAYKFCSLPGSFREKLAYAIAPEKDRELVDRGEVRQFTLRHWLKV
Data set [27] deals with T3, Alpha-2C adrenergic receptor (Homo sapiens, UniProt P18825).
T3 sequence (P18825 whole entry): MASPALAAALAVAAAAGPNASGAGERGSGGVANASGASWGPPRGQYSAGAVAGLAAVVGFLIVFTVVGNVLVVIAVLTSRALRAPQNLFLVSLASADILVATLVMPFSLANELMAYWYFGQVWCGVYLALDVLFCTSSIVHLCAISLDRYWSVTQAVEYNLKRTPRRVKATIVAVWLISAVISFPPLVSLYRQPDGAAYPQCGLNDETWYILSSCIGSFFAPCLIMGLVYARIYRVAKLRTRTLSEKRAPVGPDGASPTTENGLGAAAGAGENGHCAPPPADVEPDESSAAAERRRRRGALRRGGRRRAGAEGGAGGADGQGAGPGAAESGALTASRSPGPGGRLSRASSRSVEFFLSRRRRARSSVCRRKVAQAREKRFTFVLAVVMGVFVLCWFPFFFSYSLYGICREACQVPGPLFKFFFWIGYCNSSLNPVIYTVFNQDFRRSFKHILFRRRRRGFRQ
Kind of data set: Inhibition of alpha-2C adrenergic receptor (unknown origin).

The nature of data set [28]: Oral bioavailability in rat at 10 mg/kg. The data set is classed as ADME, organism-based. Particulars: in vivo.
Data set [29] in a line: Plasma protein binding in rat. It counts as ADME, cell-free. The settings on record: read-out: PPB (converted).
The subject of data set [30] is Rattus norvegicus. Description: Toxicity in rat at 3 to 30 mg/kg, ip. It counts as organism-based. Further details: dose 3-30 mg/kg, route intraperitoneal. The settings on record: in vivo.
Another data set addresses Histamine H1 receptor (Homo sapiens, UniProt P35367). Kind of data set: Inhibition of human H1R.
The species named for data set [31] is Rattus norvegicus. Particulars: 30 mg/kg.
The test system of data set [32] is Rattus norvegicus. Kind of data set: Wake promoting activity in rat EEG/EMG model assessed as AUC of cumulative wake at 3 mg/kg, ip up to 4 hrs relative to vehicle-treated control. It counts as functional, organism-based. Further details: dose 3 mg/kg, time < 4 hr.
In data set [33] the test system is Rattus norvegicus. Kind of data set: Wake promoting activity in rat EEG/EMG model assessed as cumulative wake time at 10 mg/kg, ip after 22 hrs relative to vehicle-treated control. The data set is classed as functional. The settings on record: route intraperitoneal.
For another data set, the target named is Histamine H2 receptor (Homo sapiens, UniProt P25021). Kind of data set: Inhibition of human H2R.
Sequence of Histamine H2 receptor (P25021 whole entry): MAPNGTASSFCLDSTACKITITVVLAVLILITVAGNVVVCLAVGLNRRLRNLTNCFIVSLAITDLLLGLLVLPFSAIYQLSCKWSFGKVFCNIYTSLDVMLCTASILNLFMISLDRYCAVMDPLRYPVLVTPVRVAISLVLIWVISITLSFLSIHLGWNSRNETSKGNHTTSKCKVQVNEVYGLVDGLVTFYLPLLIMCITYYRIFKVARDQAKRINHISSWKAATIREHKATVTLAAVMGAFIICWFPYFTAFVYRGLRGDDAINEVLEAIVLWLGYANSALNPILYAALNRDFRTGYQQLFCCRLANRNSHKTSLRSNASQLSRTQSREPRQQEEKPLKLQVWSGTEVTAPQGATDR
Data set [34] in a line: Plasma protein binding in human. It counts as ADME, cell-free. Particulars: read-out: PPB (converted).
The species named for data set [35] is Rattus norvegicus. Particulars: 10 mg/kg.
The nature of data set [36]: Clearance in rat at 1 mg/kg, iv. It counts as ADME, organism-based. The settings on record: in vivo. Also noted: dose 1 mg/kg, route intravenous.

Sequence of Histamine H1 receptor (P35367 whole entry): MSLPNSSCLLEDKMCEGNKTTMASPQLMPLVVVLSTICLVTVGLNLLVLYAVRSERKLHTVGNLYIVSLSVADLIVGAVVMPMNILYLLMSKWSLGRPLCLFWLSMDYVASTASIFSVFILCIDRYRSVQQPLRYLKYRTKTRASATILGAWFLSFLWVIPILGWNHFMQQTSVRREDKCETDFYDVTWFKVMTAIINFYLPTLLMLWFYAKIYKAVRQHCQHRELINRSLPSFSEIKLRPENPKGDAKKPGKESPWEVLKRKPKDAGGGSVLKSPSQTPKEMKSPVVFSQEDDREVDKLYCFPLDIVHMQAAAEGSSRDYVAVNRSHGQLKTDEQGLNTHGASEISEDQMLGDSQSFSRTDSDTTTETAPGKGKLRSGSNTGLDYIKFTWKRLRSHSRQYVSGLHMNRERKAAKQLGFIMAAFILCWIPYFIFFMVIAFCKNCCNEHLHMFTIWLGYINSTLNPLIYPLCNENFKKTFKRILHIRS
Sequence of Cytochrome P450 2C9 (P11712 whole entry): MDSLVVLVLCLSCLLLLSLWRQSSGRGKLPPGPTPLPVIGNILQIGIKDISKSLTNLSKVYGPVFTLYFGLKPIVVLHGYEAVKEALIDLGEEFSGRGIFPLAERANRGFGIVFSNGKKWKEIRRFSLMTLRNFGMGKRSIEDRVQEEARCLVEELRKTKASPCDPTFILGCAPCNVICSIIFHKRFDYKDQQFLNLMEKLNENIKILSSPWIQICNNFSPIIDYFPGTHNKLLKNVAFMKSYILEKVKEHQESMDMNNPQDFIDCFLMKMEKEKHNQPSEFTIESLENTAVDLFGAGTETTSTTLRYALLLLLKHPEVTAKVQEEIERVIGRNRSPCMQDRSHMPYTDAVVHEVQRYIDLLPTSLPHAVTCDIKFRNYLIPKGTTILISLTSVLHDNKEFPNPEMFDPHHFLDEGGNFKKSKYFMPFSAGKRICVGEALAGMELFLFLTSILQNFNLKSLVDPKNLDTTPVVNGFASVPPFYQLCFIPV
Sequence of Cytochrome P450 3A4 (P08684 whole entry): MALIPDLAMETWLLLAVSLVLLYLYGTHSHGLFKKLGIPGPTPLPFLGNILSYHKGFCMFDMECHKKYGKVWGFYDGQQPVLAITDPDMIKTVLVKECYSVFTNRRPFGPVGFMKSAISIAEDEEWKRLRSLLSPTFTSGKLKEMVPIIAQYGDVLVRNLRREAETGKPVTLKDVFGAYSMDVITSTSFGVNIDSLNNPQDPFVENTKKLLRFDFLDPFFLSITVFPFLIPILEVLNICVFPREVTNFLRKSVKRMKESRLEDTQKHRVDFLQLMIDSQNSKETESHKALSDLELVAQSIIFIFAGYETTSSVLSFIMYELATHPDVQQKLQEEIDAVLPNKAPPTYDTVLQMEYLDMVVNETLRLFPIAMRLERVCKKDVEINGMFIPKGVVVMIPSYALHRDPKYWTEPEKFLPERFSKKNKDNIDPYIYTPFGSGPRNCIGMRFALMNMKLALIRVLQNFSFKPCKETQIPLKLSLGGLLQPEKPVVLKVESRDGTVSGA

For `C[C@H](COc1ccc(C2=NNC(=O)C3CC23)cc1)CN1CCC[C@H]1C` (mixture of isomers), the IC50 against Cytochrome P450 3A4, at Cytochrome P450 2C9, against Cytochrome P450 2D6, against Cytochrome P450 2C19 and against Cytochrome P450 1A2 was above 30 µM in each case. Moreover, the half-life in [1] is above 40 min; in [2], above 40 min; in data set [5] it was above 40 min; in [6], 108 min; in [7], above 40 min; in [10], above 40 min. The Ki at Histamine H3 receptor [3] worked out at 9.8 nM; at Histamine H3 receptor [9], 2.3 nM. For the same compound, the clearance in [4] stood at 19 mL/min/kg. Moreover, the bioavailability in [8] is above 25%.
On to `Cc1cc(OCCCN2CCC[C@@H]2C)ccc1C1=NNC(=O)C2CC12` (mixture of isomers), for which the inhibition constant (Ki) was 103 nM at Histamine H3 receptor [3] and 49 nM at Histamine H3 receptor [9].
As to `C[C@H]1CCCN1CCCOc1ccc(C2=NNC(=O)C3CC23)cc1` (mixture of isomers), the inhibition constant Ki at Histamine H3 receptor [3] amounted to 57 nM; at Histamine H3 receptor [9], 13 nM.
With `C[C@@H]1CCCN1CCCOc1ccc(C2=NNC(=O)[C@H]3C[C@@H]23)cc1`, the half-life is above 40 min in data set [1]; above 40 min in data set [2]; 84 min in [16]; above 40 min in data set [7]; above 40 min in data set [10]. Besides, the Cmax in [11] worked out at 738 ng/mL. In addition, the Papp in data set [12] came to 15.7 ×10⁻⁶ cm/s. Also, the Ki at Histamine H3 receptor [3] was 14 nM; at Histamine H4 receptor, above 10 µM; in [26], 6.6 µM; in data set [27], 1800 nM; on Histamine H1 receptor it was above 10 µM; at Histamine H3 receptor [9], 4.5 nM. Besides, the Ki at Histamine H2 receptor was above 10 µM. For the same compound, the Kp at 2 h in data set [13] is 3.1. For the same compound, the solubility in data set [14] and in data set [23] was above 4000 µg/mL throughout. Further, the Vd in data set [15] was 2.5 L/kg. Further, the AUC with Rattus norvegicus [17] worked out at 231 min; in the data set filed under Rattus norvegicus [31], 221 min; with Rattus norvegicus [32], 134 min; in the data set filed under Rattus norvegicus [35], 192 min. The values for the Activity entry in the data set with Rattus norvegicus [18], in the data set listed under Rattus norvegicus [24] and in the data set with Rattus norvegicus [30] were “Non-toxic”, “Dose-dependent effect” and “Non-toxic”, respectively. In addition, the Time was determined as 85 min in the data set with Rattus norvegicus [19], 130 min in the data set on Rattus norvegicus [21] and 106 min with Rattus norvegicus [33]. In data set [20], this compound came in with an area under the curve AUC(0-t) of 4660 ng·h/mL. Further, the fraction unbound in data set [22] is 0.47; in data set [29], 0.46; in data set [34], 0.39. This compound also gave an ED50 in the data set listed under Rattus norvegicus [24] of 0.21 mg/kg. For the same compound, at Histamine H3 receptor [25], the EC50 was 0.6 nM. Moreover, the bioavailability in data set [28] is 46%. Besides, the IC50 on Cytochrome P450 1A2 was above 30 µM. The compound also returned a clearance in data set [36] of 20 mL/min/kg.
As for `Cc1cc(OCCCN2CCCCC2)ccc1C1=NNC(=O)C2CC12` (racemic), the Ki turned out to be 139 nM on Histamine H3 receptor [3] and 39 nM on Histamine H3 receptor [9].

The term IC50 denotes the midpoint of a concentration-inhibition curve. By half-life is commonly meant how long it takes for the measured level to halve. By Ki is commonly meant the equilibrium dissociation constant of an inhibitor or competing ligand from its target. The clearance is the rate of elimination divided by the concentration. What is called bioavailability is dose-corrected exposure relative to a reference, in per cent. One may read the Cmax as the maximum level reached in the sampled fluid or tissue. The term Papp denotes the rate of passage across a membrane or cell layer, normalised by area and donor concentration. Usually solubility stands for how much of the substance goes into solution per volume. By AUC(0-t) is commonly meant the area under the concentration-time curve up to a stated or last time point. The term ED50 denotes the dose that gives a 50% effect, or the effect in half of the subjects. Broadly, the EC50 is the midpoint of the concentration-response curve.

Values taken from ChEMBL document CHEMBL3414489, “3,4-Diaza-bicyclo[4.1.0]hept-4-en-2-one phenoxypropylamine analogs of irdabisant (CEP-26401) as potent histamine-3 receptor inverse agonists with robust wake-promoting activity” (Eur J Med Chem, 2015).
